Results: patent publication US5004758A, “Water soluble camptothecin analogs useful for inhibiting the growth of animal tumor cells” (priority 1988, dated 1991)
Where a name gives a salt, the structure may show the parent alone. Read-outs that look alike come from different tables or passages of the source.

Columns and labels:
L1210 leukemia cells = test: cells; format: cell-based, mouse; details: Mus musculus, L1210, read-out: In Vitro Activity IC50
Protocol: Cells were exposed continuously upon cloning into medium containing 0.2 percent Noble agar. After incubation at 37° C. in a CO2 incubator for 3 days, colonies were stained with viable cell specific formazan stain and, 24 hours later, were enumerated by a colony counter (Biotran II, New Brunswick Scientific Co., Edison, N.J.) adjusted to identify colonies of more than 50 cells. The concentration which reduced cloning efficiency by 50 percent IC50) was determined by interpolation.

ip L1210 leukemia = test: ip-implanted L1210 leukemia in mice;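 further: each mouse received 10^6 L1210 cells intraperitoneally, with drug treatment also given by the i.p. route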; details: ip L1210 (10^6 cells); drug i.p. Days 1 and 5 at maximally tolerated dose
Protocol: (§1) For in vivo studies L1210 cells were implanted i.p. (10^6 per mouse)
(§2) and drugs were administered i.p. on Days 1 and 5. Increase in lifespan
(§3) (ILS) was based on median survival time of groups of 6 mice treated at th
maximally tolerated dose of the drugs.

[1] = ip-implanted L1210 leukemia in mice; details: mouse, in vivo, ip;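 further: each mouse received 10^6 L1210 cells intraperitoneally, with drug treatment also given by the i.p. route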
Protocol: as §1, §2, §3
maximally tolerated dose of the drugs.

P388/Mitoxantrone = test: ip P388/Mitoxantrone multidrug resistant subline in mice; details: for ILS / NCK (net tumor cell kill): P388/Mitoxantrone, ip, Days 1 and 5
Protocol: (§4) Increase in lifespan (ILS) is based on median survival time of groups of 6 mice. Net tumor cell kill (NCK) is calculated from median survival time by standard methods, since survival time is a linear function of the log tumor cell burden.
(§5) For the leukemias, these tumors are maintained in DBA/2 mice. […] The leukemias and the M5076 sarcoma are serially transplanted i.p. as ascites cell suspensions while the B16 melanoma lines and the colon carcinoma 26 are serially transplanted as s.c. solid tumors.
(§6) For therapeutic trials, tumors are aseptically removed from donor mice and prepared as suspensions for implantation ip into test animals. […] The test animals for the other tumor models are syngeneic female F1 hybrid B6D2F1 mice (C57B1/6 x DBA/2). The inoculum level varies with the type of tumor: P388 leukemia is inoculated at 10^6 cells per mouse, L1210 leukemia at 10^5 or 10^6 cells per mouse, M5076 sarcoma at 5×10^6 cells per mouse. […] After tumor inoculation, mice randomized to treatment groups comprised of 6-8 mice each. In each experiment, there are three groups of untreated control mice. Drugs are dissolved or suspended in appropriate aqueous vehicles and given by a variety of routes and schedules of administration over a range of dose levels. Animals are housed in shoebox cages and are monitored daily for mortality for 30 (L1210), 45 (P388) or 60 (B16, M5076, colon 26) days.

ip P388 leukemia = details: P388, ip, Days 1 and 5
P388/Doxorubicin = test: ip P388/Doxorubicin multidrug resistant subline in mice; details: for ILS / NCK (net tumor cell kill): P388/Doxorubicin, ip, Days 1 and 5; for sensitivity / resistance of subline: P388/doxorubicin in mice
Protocol: as §4, §5, §6

Structure (SMILES): CC[C@@]1(O)C(=O)OCc2c1cc1n(c2=O)Cc2cc3c(CNC4CC4)c(O)ccc3nc2-1 [8S]
- IC50 (L1210 leukemia cells): 130 nM
- In Vivo Antitumor Activity ILS (increase in lifespan) (ip L1210 leukemia): 131%
- MTD [1]: 25 mg/kg

Structure (SMILES): CC[C@@]1(O)C(=O)OCc2c1cc1n(c2=O)Cc2cc3c(CN(C)c4ccccc4)c(O)ccc3nc2-1 [9S]
- IC50 (L1210 leukemia cells): 69 nM
- In Vivo Antitumor Activity ILS (increase in lifespan) (ip L1210 leukemia): 112%
- MTD [1]: 42 mg/kg

Structure (SMILES): CCOCc1c(O)ccc2nc3c(cc12)Cn1c-3cc2c(c1=O)COC(=O)[C@]2(O)CC [10S, (20 S) 9-Ethoxymethyl-10-hydroxycamptothecin]
- IC50 (L1210 leukemia cells): 48 nM
- In Vivo Antitumor Activity ILS (increase in lifespan) (ip L1210 leukemia): 131%
- MTD [1]: 25 mg/kg

Structure (SMILES): CC[C@@]1(O)C(=O)OCc2c1cc1n(c2=O)Cc2cc3c(CNC4CCCCC4)c(O)ccc3nc2-1 [11S]
- IC50 (L1210 leukemia cells): 56 nM
- In Vivo Antitumor Activity ILS (increase in lifespan) (ip L1210 leukemia): > 200%
- MTD [1]: 25 mg/kg

Structure (SMILES): CC[C@@]1(O)C(=O)OCc2c1cc1n(c2=O)Cc2cc3c(CNCCN(C)C)c(O)ccc3nc2-1 [12S, (20 S) 9-N,N-Dimethylaminoethylaminomethyl-10-hydroxycamptothecin Dihydrochloride Salt]
- IC50 (L1210 leukemia cells): 49 nM
- In Vivo Antitumor Activity ILS (increase in lifespan) (ip L1210 leukemia): 94%
- MTD [1]: > 42 mg/kg

Structure (SMILES): CC[C@@]1(O)C(=O)OCc2c1cc1n(c2=O)Cc2cc3c(COCCN(C)C)c(O)ccc3nc2-1 [13S, (20 S) 9-N,N-Dimethylaminoethyloxymethyl-10-hydroxycamptothecin Hydrochloride Salt]
- In Vivo Antitumor Activity ILS (increase in lifespan) (ip L1210 leukemia): 188%
- MTD [1]: 42 mg/kg

Structure (SMILES): CC[C@@]1(O)C(=O)OCc2c1cc1n(c2=O)Cc2cc3c(CSCCN(C)C)c(O)ccc3nc2-1 [14S, (20 S) 9-N,N-Dimethylaminoethylthiomethyl-10-hydroxycamptothecin Hydrochloride Salt]
- IC50 (L1210 leukemia cells): 12 nM
- In Vivo Antitumor Activity ILS (increase in lifespan) (ip L1210 leukemia): 112%
- MTD [1]: 42 mg/kg

Structure (SMILES): CC[C@@]1(O)C(=O)OCc2c1cc1n(c2=O)Cc2cc3cc(C=O)ccc3nc2-1 [19S, (20S) 10-Formylcamptothecin]
- IC50 (L1210 leukemia cells): 62 nM

Structure (SMILES): COc1cccc2c1C(=O)c1c(O)c3c(c(O)c1C2=O)C[C@@](O)(C(=O)CO)C[C@@H]3O[C@H]1C[C@H](N)[C@H](O)[C@H](C)O1 [Doxorubicin]
- ILS (P388/Mitoxantrone; 1.2 mg/kg): 0%
- NCK (net tumor cell kill) (P388/Mitoxantrone; 1.2 mg/kg): 0 log
- ILS (P388/Mitoxantrone; 1.9 mg/kg): 0%
- NCK (net tumor cell kill) (P388/Mitoxantrone; 1.9 mg/kg): 0 log
- ILS (P388/Mitoxantrone; 3.2 mg/kg): 0%
- NCK (net tumor cell kill) (P388/Mitoxantrone; 3.2 mg/kg): 0 log
- ILS (P388/Mitoxantrone; 5.4 mg/kg): 4%
- NCK (net tumor cell kill) (P388/Mitoxantrone; 5.4 mg/kg): 0 log
- ILS (P388/Mitoxantrone; 9 mg/kg): 7%
- NCK (net tumor cell kill) (P388/Mitoxantrone; 9 mg/kg): 0 log
- sensitivity / resistance of subline (P388/Mitoxantrone; P388/mitoxantrone in mice): expected resistance
- ILS (ip P388 leukemia; 1.2 mg/kg): 117%
- NCK (net tumor cell kill) (ip P388 leukemia; 1.2 mg/kg): 3.0 log
- ILS (ip P388 leukemia; 1.9 mg/kg): 167%
- NCK (net tumor cell kill) (ip P388 leukemia; 1.9 mg/kg): 5.1 log
- ILS (ip P388 leukemia; 3.2 mg/kg): 172%
- NCK (net tumor cell kill) (ip P388 leukemia; 3.2 mg/kg): 5.3 log
- ILS (ip P388 leukemia; 5.4 mg/kg): 156%
- NCK (net tumor cell kill) (ip P388 leukemia; 5.4 mg/kg): 4.6 log
- ILS (ip P388 leukemia; 9 mg/kg): 233%
- NCK (net tumor cell kill) (ip P388 leukemia; 9 mg/kg): 6.5 log
- ILS (P388/Doxorubicin; 1.2 mg/kg): 19%
- NCK (net tumor cell kill) (P388/Doxorubicin; 1.2 mg/kg): 0 log
- ILS (P388/Doxorubicin; 1.9 mg/kg): 24%
- NCK (net tumor cell kill) (P388/Doxorubicin; 1.9 mg/kg): 0 log
- ILS (P388/Doxorubicin; 3.2 mg/kg): 24%
- NCK (net tumor cell kill) (P388/Doxorubicin; 3.2 mg/kg): 0 log
- ILS (P388/Doxorubicin; 5.4 mg/kg): 19%
- NCK (net tumor cell kill) (P388/Doxorubicin; 5.4 mg/kg): 0 log
- ILS (P388/Doxorubicin; 9 mg/kg): 14%
- NCK (net tumor cell kill) (P388/Doxorubicin; 9 mg/kg): 0 log
- sensitivity / resistance of subline (P388/Doxorubicin): expected resistance

Structure (SMILES): CO[C@@]12[C@H](COC(N)=O)C3=C(C(=O)C(C)=C(N)C3=O)N1C[C@@H]1N[C@@H]12 [Mitomycin C]
- ILS (P388/Mitoxantrone; 1.0 mg/kg): 14%
- NCK (net tumor cell kill) (P388/Mitoxantrone; 1.0 mg/kg): 0 log
- ILS (P388/Mitoxantrone; 1.6 mg/kg): 29%
- NCK (net tumor cell kill) (P388/Mitoxantrone; 1.6 mg/kg): 0 log
- ILS (P388/Mitoxantrone; 2.7 mg/kg): 54%
- NCK (net tumor cell kill) (P388/Mitoxantrone; 2.7 mg/kg): 1.8 log
- ILS (P388/Mitoxantrone; 4.5 mg/kg): 136%
- NCK (net tumor cell kill) (P388/Mitoxantrone; 4.5 mg/kg): 6.5 log
- ILS (P388/Mitoxantrone; 7.5 mg/kg): 104%
- NCK (net tumor cell kill) (P388/Mitoxantrone; 7.5 mg/kg): 5.5 log
- ILS (ip P388 leukemia; 1.0 mg/kg): 83%
- NCK (net tumor cell kill) (ip P388 leukemia; 1.0 mg/kg): 1.7 log
- ILS (ip P388 leukemia; 1.6 mg/kg): 106%
- NCK (net tumor cell kill) (ip P388 leukemia; 1.6 mg/kg): 2.6 log
- ILS (ip P388 leukemia; 2.7 mg/kg): 128%
- NCK (net tumor cell kill) (ip P388 leukemia; 2.7 mg/kg): 3.5 log
- ILS (ip P388 leukemia; 4.5 mg/kg): 156%
- NCK (net tumor cell kill) (ip P388 leukemia; 4.5 mg/kg): 4.6 log
- ILS (ip P388 leukemia; 7.5 mg/kg): 178%
- NCK (net tumor cell kill) (ip P388 leukemia; 7.5 mg/kg): 5.5 log
- ILS (P388/Doxorubicin; 1.0 mg/kg): 29%
- NCK (net tumor cell kill) (P388/Doxorubicin; 1.0 mg/kg): 0 log
- ILS (P388/Doxorubicin; 1.6 mg/kg): 48%
- NCK (net tumor cell kill) (P388/Doxorubicin; 1.6 mg/kg): 0.3 log
- ILS (P388/Doxorubicin; 2.7 mg/kg): 52%
- NCK (net tumor cell kill) (P388/Doxorubicin; 2.7 mg/kg): 0.5 log
- ILS (P388/Doxorubicin; 4.5 mg/kg): 62%
- NCK (net tumor cell kill) (P388/Doxorubicin; 4.5 mg/kg): 1.0 log
- ILS (P388/Doxorubicin; 7.5 mg/kg): 52%
- NCK (net tumor cell kill) (P388/Doxorubicin; 7.5 mg/kg): 0.5 log
- sensitivity / resistance of subline (P388/Doxorubicin): resistant
